Assay results: US20110189297A1, “STABLE SOLID ORAL DOSAGE CO-FORMULATIONS” (Sequicia Pharmaceuticals, priority 2008, published 2011)

What was measured:
[1] = Dissolution study of hand-filled capsules in simulated gastric fluid, HPLC; assay type: physicochemical; conditions: capsule in 500 mL simulated gastric fluid
Procedure: Commercially available 200 mg Reyataz hard gelatin capsules (lot number 6E3004B) were emptied by hand to create a stockpile of Atazanavir (ATV) commercial powder. This commercially available 200 mg Reyataz capsule contains 200 mg ATV as Atazanavir sulphate plus 178 mg of excipients (crospovidone, lactose monohydrate and magnesium stearate) for a total weigh to of 378 mg. 189 mg of the stockpiled commercial powder (equivalent to 100 mg Atazanavir) was blended by tumbling in a glass vial with 100 mg of the spray-dried amorphous dispersion (SDD) of Compound II/EUDRAGIT L-100 (EL-100) where the Compound II:EL100 ratio was 1:1 (produced by Hovione FarmaCientia) and filled by hand into “0” hard gelatin capsules. Therefore, each hand-filled “0” hard gelatin capsule contained 100 mg ATV, […] of Compound II:EL100 (1:1) SDD and 89 mg of excipients. These capsules were dropped into 500 mL of simulated gastric fluid and the amounts of Compound II and ATV in the resulting suspension was determined by HPLC (see Table 1 and FIG. 1).

CYP3A = conditions: human liver microsomes, in vitro; cited from earlier work
[2] = Pharmacokinetic study in beagle dogs, oral dry powder in capsules; assay type: in vivo
Procedure: A pharmacokinetic study was performed in beagle dogs to evaluate the performance of the oral dosage formulation prepared in Example 1 above. […] Both plasma levels and duration of exposure was increased.
The plasma exposure of the compound of Formula II from Compound II:EL100 (1:1) SDD powder alone was compared to co-administration with Atazanavir powder (FIG. 3). The ratio of the AUCs from mean plasma concentrations was 2.5, but the differences among individual animal was not statistically significant. The apparent increase in mean Compound II exposure came mostly later in the time course, after 8 hours.

[3] = Inherent anti-retroviral activity

% of maximal Compound II Conc. ([1]; 0 min) [%] | % of maximal Compound II Conc. ([1]; 5 min) [%] | % of maximal Compound II Conc. ([1]; 10 min) [%] | % of maximal Compound II Conc. ([1]; 15 min) [%] | % of maximal Compound II Conc. ([1]; 20 min) [%] | % of maximal Compound II Conc. ([1]; 25 min) [%] | % of maximal Compound II Conc. ([1]; 30 min) [%] | ratio of the AUCs from mean plasma concentrations of Compound II ([2]; 10 mg/kg Compound II from Compound II:EL100 (1:1) SDD with 20 mg/kg Atazanavir vs alone) | Cmax of Compound II, change on co-administration ([2]; Compound II:EL100 (1:1) SDD with Atazanavir vs alone) | SMILES | % of maximal ATV Conc. ([1]; 0 min) [%] | % of maximal ATV Conc. ([1]; 5 min) [%] | % of maximal ATV Conc. ([1]; 10 min) [%] | % of maximal ATV Conc. ([1]; 15 min) [%] | % of maximal ATV Conc. ([1]; 20 min) [%] | % of maximal ATV Conc. ([1]; 25 min) [%] | % of maximal ATV Conc. ([1]; 30 min) [%] | metabolising enzyme (CYP3A) | inherent anti-retroviral activity [3]
– | – | – | – | – | – | – | – | – | COC(=O)N[C@H](C(=O)N[C@@H](Cc1ccccc1)[C@@H](O)CN(Cc1ccc(-c2ccccn2)cc1)NC(=O)[C@@H](NC(=O)OC)C(C)(C)C)C(C)(C)C.O=S(=O)(O)O [Atazanavir, Atazanavir sulfate, reference compound] | 0 | 88.9 | 93.4 | 100.0 | 99.4 | 99.1 | 97.9 | metabolized by CYP3A | –
0 | 27.6 | 61.9 | 54.5 | 88.2 | 89.8 | 100.0 | 2.5 | slightly increased | CO[C@H](CN(CC(C)C)S(=O)(=O)c1ccc2occc2c1)[C@H](Cc1ccccc1)NC(=O)OC(C)(C)C [Compound II] | – | – | – | – | – | – | – | – | no inherent anti-retroviral activity
